Data set [1] deals with Metabotropic glutamate receptor 5 (Rattus norvegicus) (UniProt P31424). As to the kind of experiment: Positive allosteric modulation of rat mGlu5 receptor expressed in HEK293 cells relative to glutamate. The format is cell-based. Further details: concentration or dose not given beside the values.
For data set [2], the target named is Metabotropic glutamate receptor 5 (Rattus norvegicus, UniProt P31424). Briefly: (§1) Positive allosteric modulation of rat mGlu5 receptor expressed in HEK293 cells. The format is cell-based.
Sequence of Metabotropic glutamate receptor 5 (P31424 whole entry): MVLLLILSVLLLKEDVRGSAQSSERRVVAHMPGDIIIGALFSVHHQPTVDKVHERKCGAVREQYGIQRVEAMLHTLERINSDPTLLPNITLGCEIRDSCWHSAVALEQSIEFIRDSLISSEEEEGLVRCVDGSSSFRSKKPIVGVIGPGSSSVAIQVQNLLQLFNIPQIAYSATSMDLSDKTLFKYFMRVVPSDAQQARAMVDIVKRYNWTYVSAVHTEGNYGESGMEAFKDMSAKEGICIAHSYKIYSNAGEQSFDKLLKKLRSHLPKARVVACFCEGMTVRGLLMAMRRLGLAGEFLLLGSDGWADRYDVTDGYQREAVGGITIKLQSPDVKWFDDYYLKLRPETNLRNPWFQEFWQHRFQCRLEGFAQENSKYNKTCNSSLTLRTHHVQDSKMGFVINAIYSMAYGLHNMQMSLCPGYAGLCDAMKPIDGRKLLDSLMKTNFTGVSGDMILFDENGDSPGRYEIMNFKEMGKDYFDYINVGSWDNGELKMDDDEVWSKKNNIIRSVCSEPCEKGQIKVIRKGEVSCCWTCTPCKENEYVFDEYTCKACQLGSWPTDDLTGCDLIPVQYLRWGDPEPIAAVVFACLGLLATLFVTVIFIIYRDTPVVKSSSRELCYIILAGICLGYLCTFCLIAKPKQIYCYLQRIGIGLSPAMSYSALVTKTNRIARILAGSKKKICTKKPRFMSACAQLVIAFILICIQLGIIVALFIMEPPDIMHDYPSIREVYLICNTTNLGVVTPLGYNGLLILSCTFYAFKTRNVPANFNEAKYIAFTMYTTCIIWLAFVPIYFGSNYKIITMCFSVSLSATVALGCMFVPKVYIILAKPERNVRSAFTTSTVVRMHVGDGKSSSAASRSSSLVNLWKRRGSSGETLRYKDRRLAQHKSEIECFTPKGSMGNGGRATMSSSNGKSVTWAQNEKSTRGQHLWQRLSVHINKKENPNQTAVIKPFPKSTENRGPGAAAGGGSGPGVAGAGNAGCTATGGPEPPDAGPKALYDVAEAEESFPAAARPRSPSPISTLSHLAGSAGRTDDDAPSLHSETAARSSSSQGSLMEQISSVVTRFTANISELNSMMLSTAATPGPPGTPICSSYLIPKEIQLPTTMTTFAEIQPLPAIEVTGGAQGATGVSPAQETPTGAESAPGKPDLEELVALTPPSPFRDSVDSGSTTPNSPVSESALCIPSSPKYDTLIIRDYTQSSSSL
Data set [3] can be described thus: (§2) Fraction unbound in rat plasma. The format is ADME, cell-free.
The nature of data set [4]: (§3) Fraction unbound in human plasma. The format is ADME, cell-free.
The next data set concerns the target T1, Cytochrome P450 1A2 (Homo sapiens, UniProt P05177).
T1 sequence (P05177 whole entry): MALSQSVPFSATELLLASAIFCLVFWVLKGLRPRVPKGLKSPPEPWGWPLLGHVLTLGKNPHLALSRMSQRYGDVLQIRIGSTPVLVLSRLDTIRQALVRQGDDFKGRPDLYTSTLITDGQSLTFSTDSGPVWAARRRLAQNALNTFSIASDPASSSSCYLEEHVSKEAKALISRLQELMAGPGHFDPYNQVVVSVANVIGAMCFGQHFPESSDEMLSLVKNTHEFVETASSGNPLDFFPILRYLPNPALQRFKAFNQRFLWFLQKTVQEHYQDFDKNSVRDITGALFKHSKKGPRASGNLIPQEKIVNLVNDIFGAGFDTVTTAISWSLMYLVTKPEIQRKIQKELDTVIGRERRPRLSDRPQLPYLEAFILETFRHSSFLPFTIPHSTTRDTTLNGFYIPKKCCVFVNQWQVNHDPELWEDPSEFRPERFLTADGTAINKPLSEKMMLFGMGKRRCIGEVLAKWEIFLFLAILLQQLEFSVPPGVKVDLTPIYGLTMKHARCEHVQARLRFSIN
Briefly: Inhibition of CYP1A2 (unknown origin). The format is ADME.

The target in data set [5] is Metabotropic glutamate receptor 7 (Rattus norvegicus) (UniProt P35400). Briefly: Positive allosteric modulation of rat mGlu7 receptor.
Another data set concerns the target Cytochrome P450 2D6 (Homo sapiens, UniProt P10635). As to the kind of experiment: Inhibition of CYP2D6 (unknown origin). The class given is ADME.
The target of data set [6] is Metabotropic glutamate receptor 2 (Rattus norvegicus) (UniProt P31421). As to the kind of experiment: Positive allosteric modulation of rat mGlu2 receptor.
Sequence of Metabotropic glutamate receptor 2 (Rattus norvegicus) (P31421 19-872 limits assumed): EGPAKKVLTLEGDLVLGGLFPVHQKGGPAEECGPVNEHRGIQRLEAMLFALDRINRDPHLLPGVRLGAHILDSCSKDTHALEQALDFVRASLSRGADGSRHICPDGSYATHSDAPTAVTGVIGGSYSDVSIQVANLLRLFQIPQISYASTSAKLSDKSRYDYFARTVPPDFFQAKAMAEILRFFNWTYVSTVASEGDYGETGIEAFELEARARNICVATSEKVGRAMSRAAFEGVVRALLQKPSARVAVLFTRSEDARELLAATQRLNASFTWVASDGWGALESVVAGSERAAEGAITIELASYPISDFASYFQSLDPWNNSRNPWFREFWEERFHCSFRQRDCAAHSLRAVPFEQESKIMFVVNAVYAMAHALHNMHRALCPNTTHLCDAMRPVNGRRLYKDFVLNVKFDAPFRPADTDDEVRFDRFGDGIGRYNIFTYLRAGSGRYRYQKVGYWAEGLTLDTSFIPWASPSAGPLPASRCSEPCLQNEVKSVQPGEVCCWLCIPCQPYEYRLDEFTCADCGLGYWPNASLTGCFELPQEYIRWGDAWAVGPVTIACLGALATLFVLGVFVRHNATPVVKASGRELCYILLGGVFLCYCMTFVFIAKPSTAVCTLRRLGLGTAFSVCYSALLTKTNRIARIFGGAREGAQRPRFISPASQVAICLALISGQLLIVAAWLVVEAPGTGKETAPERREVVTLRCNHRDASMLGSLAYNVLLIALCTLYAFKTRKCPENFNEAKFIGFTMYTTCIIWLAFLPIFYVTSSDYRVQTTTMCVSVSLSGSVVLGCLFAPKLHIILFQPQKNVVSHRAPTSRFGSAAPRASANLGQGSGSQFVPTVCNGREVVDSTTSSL
For data set [7], the target named is Metabotropic glutamate receptor 1 (Rattus norvegicus) (UniProt P23385). As to the kind of experiment: Positive allosteric modulation of rat mGlu1 receptor.
For data set [8], the target named is Metabotropic glutamate receptor 2 (Homo sapiens) (UniProt Q14416). Briefly: Positive allosteric modulation of human mGlu2 receptor.
Sequence of Metabotropic glutamate receptor 2 (Homo sapiens) (Q14416 19-872 limits assumed): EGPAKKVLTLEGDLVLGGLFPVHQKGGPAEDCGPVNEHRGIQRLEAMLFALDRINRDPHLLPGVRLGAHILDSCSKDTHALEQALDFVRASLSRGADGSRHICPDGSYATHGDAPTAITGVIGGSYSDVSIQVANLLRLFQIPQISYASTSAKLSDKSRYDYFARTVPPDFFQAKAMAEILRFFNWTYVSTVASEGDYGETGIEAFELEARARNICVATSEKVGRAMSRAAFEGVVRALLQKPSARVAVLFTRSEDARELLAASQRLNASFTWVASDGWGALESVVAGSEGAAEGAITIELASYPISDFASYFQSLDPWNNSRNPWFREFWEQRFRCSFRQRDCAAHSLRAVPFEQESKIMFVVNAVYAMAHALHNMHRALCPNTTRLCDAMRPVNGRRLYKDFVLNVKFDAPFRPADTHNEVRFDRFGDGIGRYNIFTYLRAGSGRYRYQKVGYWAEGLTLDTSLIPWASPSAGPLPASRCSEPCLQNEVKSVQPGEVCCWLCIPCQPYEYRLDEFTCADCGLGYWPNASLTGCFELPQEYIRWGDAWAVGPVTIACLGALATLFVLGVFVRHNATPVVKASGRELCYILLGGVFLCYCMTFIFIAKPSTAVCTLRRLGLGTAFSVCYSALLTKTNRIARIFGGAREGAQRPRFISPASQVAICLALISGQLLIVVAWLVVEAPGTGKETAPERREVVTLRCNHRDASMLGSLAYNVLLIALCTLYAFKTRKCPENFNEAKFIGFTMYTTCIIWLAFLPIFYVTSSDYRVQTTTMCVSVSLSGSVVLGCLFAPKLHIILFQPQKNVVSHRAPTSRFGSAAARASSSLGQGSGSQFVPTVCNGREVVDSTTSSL
Data set [9] addresses Metabotropic glutamate receptor 8 (Rattus norvegicus) (UniProt P70579). As to the kind of experiment: Positive allosteric modulation of rat mGlu8 receptor.
For data set [10], the system named is Plasma. As to the kind of experiment: Stability in rat plasma at 37 degC after 4 hrs. The class given is ADME, cell-free.
The next data set addresses Cytochrome P450 2C9 (Homo sapiens, UniProt P11712). As to the kind of experiment: Inhibition of CYP2C9 (unknown origin). The format is ADME.
The target of the next data set is Cytochrome P450 3A4 (Homo sapiens, UniProt P08684). As to the kind of experiment: Inhibition of CYP3A4 (unknown origin). The class given is ADME.
The target of data set [11] is Metabotropic glutamate receptor 7 (Homo sapiens) (UniProt Q14831). As to the kind of experiment: Positive allosteric modulation of human mGlu7 receptor.
In data set [12] the target is Metabotropic glutamate receptor 8 (Homo sapiens) (UniProt O00222). As to the kind of experiment: Positive allosteric modulation of human mGlu8 receptor.
The target in data set [13] is Metabotropic glutamate receptor 1 (Homo sapiens) (UniProt Q13255). Briefly: Positive allosteric modulation of human mGlu1 receptor.
The target of data set [14] is Metabotropic glutamate receptor 3 (Rattus norvegicus) (UniProt P31422). Briefly: Positive allosteric modulation of rat mGlu3 receptor.
Data set [15] has as its target Metabotropic glutamate receptor 6 (Rattus norvegicus) (UniProt P35349). Briefly: Positive allosteric modulation of rat mGlu6 receptor.
Data set [16] addresses Metabotropic glutamate receptor 6 (Homo sapiens) (UniProt O15303). Briefly: Positive allosteric modulation of human mGlu6 receptor.
Data set [17] has as its system Plasma. As to the kind of experiment: Stability in human plasma at 37 degC after 4 hrs. The format is ADME, cell-free.
Data set [18] addresses Metabotropic glutamate receptor 3 (Homo sapiens) (UniProt Q14832). Briefly: Positive allosteric modulation of human mGlu3 receptor.
Data set [19] has as its target Metabotropic glutamate receptor 5 (Rattus norvegicus) (UniProt P31424). The description is as §1. The class given is cell-based.
Data set [20] relates to Plasma. Described as §2. The class given is ADME, cell-free.
The test system of data set [21] is Plasma. The data set is described as §3. The class given is ADME, cell-free.

The structures appear in SMILES notation. Active and inactive are the calls of the source. The rule behind the calls is not given here.

Sequence of Metabotropic glutamate receptor 5 (Rattus norvegicus) (P31424 21-1203 limits assumed): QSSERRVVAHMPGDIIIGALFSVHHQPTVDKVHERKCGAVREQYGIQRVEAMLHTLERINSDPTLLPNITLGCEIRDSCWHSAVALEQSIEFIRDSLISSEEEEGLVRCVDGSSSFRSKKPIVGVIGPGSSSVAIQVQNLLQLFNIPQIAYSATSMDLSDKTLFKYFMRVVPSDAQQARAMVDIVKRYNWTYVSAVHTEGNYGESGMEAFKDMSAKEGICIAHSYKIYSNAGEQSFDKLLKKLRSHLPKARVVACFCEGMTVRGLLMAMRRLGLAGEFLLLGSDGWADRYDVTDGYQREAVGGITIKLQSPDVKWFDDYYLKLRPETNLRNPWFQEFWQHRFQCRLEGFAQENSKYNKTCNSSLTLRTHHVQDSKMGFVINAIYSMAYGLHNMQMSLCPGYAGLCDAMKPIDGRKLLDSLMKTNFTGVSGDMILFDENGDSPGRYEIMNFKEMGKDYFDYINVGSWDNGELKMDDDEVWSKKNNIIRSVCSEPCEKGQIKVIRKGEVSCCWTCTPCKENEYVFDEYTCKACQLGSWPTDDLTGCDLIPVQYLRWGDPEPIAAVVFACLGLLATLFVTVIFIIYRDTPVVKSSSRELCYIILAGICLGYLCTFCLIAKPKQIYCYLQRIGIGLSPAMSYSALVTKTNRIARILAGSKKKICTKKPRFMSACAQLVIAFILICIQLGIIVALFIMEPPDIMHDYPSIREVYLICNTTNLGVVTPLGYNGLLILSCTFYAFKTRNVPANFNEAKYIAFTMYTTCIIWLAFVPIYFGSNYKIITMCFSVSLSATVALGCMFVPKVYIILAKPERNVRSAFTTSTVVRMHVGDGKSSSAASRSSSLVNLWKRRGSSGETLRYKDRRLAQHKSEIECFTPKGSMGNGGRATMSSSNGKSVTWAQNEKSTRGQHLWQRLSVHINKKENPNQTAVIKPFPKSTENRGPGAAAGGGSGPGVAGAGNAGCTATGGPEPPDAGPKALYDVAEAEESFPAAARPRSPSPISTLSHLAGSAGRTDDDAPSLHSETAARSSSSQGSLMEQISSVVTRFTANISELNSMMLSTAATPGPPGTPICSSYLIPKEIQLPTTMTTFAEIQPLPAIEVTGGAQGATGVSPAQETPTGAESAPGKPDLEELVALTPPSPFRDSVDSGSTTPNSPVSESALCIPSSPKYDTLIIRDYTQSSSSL
Sequence of Metabotropic glutamate receptor 3 (Homo sapiens) (Q14832 23-879 limits assumed): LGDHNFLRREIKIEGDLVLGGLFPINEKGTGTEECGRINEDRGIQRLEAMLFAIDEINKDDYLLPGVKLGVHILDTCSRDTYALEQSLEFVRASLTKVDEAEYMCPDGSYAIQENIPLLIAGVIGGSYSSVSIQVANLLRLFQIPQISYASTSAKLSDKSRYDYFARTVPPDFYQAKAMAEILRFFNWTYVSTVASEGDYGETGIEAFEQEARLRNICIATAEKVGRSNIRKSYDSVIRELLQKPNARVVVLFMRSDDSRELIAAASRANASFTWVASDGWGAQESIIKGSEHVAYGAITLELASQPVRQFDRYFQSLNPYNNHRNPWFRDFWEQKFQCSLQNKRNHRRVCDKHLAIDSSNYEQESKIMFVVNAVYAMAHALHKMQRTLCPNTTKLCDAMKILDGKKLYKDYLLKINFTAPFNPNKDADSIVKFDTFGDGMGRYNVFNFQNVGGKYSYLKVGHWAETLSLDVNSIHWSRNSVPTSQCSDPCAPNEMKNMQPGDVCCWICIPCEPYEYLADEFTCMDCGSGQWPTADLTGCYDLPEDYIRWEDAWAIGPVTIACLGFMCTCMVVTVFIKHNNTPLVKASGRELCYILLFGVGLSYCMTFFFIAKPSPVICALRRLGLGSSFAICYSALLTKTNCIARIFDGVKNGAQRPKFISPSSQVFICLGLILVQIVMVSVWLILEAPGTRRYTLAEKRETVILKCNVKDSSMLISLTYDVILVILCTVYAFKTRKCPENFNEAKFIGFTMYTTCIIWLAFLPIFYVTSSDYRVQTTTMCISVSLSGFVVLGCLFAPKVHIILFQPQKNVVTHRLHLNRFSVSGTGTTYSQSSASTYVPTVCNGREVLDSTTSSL

As for `COc1ccccc1C1(C)CCn2nc(COc3ccccc3)cc2C1=O` (stereo not drawn), the Activity in [1] is 52%. Further, in data set [2], the midpoint of the response, the EC50, lay at 654 nM.
The corresponding values for `COc1ccc(CNC2CCCn3nc(COc4ccccc4)cc32)cc1` (stereo not drawn) are 60% and 290 nM.
In the same order, the values of `CC1CCn2nc(COc3ccccc3)cc2C1(C)O` (stereo not drawn) are 39% and 1680 nM.
The corresponding values for `c1ccc(NC2CCCn3nc(COc4ccccc4)cc32)cc1` (stereo not drawn) are 62% and 269 nM.
Take `c1ccc(OCc2cc3n(n2)CCCC3NC2CC2)cc1` (stereo not drawn): in data set [1], the Activity was determined as 50%. Also, in data set [2], the EC50 (in general, the midpoint of the concentration-response curve) was found to be 1800 nM.
The corresponding values for `CC1(C)CCn2nc(COc3ccccc3)cc2C1O` (stereo not drawn) are 60% and 4410 nM.
The corresponding values for `CC1(C)CCn2nc(COc3ccccc3)cc2C1OCc1ccccc1` (stereo not drawn) are 64% and 2320 nM.
For `CC1(C)CCn2nc(COc3ccccc3)cc2C1=O`, the results for the fraction unbound in [3] and in data set [4] were 0.07 and 0.1, respectively. The molecule also came in with an Activity in [1] of 70%. In addition, the midpoint of the response in data set [2], the EC50, lay at 86 nM. For the same molecule, the IC50 (in general, the concentration at which inhibition is half-maximal) at Cytochrome P450 1A2 was determined as 7300 nM.
Molecule `c1ccc(OCc2cc3n(n2)CCCC3N2CCOCC2)cc1` (stereo not drawn) registered an Activity in data set [1] of 52%. Also, the EC50 in [2] came out at 2360 nM.
Regarding `O=C1CCCn2nc(COc3ccccc3)cc21`, the Activity was more than 10 µM in data set [5]; more than 10 µM in data set [6]; more than 10 µM in data set [7]; more than 10 µM in [8]; more than 10 µM in data set [9]; 66% in data set [1]. The Activity in [11], in data set [12], in [13], in [14], in data set [15] and in [16] was more than 10 µM throughout. Moreover, in data set [18], the Activity is more than 10 µM. Also, the “inhibition (INH)” value on Cytochrome P450 2D6, at Cytochrome P450 2C9 and against Cytochrome P450 3A4 was “Active” each time. In addition, the Stability result in the data set on Plasma [10] and in the data set on Plasma [17] was “Stable” in each case. Moreover, the fraction unbound (commonly the share of the substance not bound to proteins or other matrix) in [3] is 0.21; in data set [4], 0.23. Also, in data set [2], the EC50 turned out to be 129 nM. The molecule also had an IC50 against Cytochrome P450 1A2 of 6200 nM.
As to `O=C1c2cc(OCc3ccccc3)nn2CCC1c1ccc(F)cc1` (stereo not drawn), the Activity in data set [1] was found to be 48%. Further, a half-maximal effect in [2] (EC50) was put at 95 nM.
In the same order, the values of `Fc1ccc(CNC2CCCn3nc(COc4ccccc4)cc32)cc1` (stereo not drawn) are 69% and 316 nM.
In [1], `CN(Cc1ccccc1)C1CCCn2nc(COc3ccccc3)cc21` (stereo not drawn) returned an Activity of 71%. Moreover, the EC50 in [2] amounted to 686 nM.
In the same order, the values of `CC(C)N1CCN(C2CCCn3nc(COc4ccccc4)cc32)CC1` (stereo not drawn) are 71% and 870 nM.
The corresponding values for `NC1CCCn2nc(COc3ccccc3)cc21` (stereo not drawn) are 45% and more than 10000 nM.
In the same order, the values of `CC1(C)CCn2nc(OCc3ccccc3)cc2C1=O` are 56% and 228 nM.
As for `O=C1c2cc(COc3ccccc3)nn2CCC12CCCC2`, in data set [1], the Activity turned out to be 60%. This molecule also showed an EC50 in data set [2] of 48 nM.
In [1], `c1ccc(OCc2cc3n(n2)CCCC3NCc2cccnc2)cc1` (stereo not drawn) yielded an Activity of 59%. Further, in data set [2], the response was half-maximal at 2840 nM (EC50).
As for `OC1(C(F)(F)F)CCCn2nc(COc3ccccc3)cc21` (stereo not drawn), the Activity in data set [1] was determined as 54%. This molecule also gave a concentration for a half-maximal effect (EC50) in [2] of 3780 nM.
In the same order, the values of `O=C1c2cc(COc3ccccc3)nn2CCC1(Cc1ccccc1)Cc1ccccc1` are 37% and more than 10000 nM.
In the same order, the values of `FC1(F)CCCn2nc(COc3ccccc3)cc21` are 52% and 625 nM.
The corresponding values for `c1ccc(CNC2CCCn3nc(OCc4ccccc4)cc32)cc1` (stereo not drawn) are 48% and 618 nM.
On to `COC1CCCn2nc(COc3ccccc3)cc21` (stereo not drawn), for which, in data set [1], the Activity was found to be 43%. In data set [2], this molecule gave an EC50 of 2910 nM.
The corresponding values for `Fc1cccc(CNC2CCCn3nc(COc4ccccc4)cc32)c1` (stereo not drawn) are 75% and 275 nM.
As for `Clc1ccc(CNC2CCCn3nc(COc4ccccc4)cc32)cc1` (stereo not drawn), the Activity in data set [1] is 65%. The same molecule returned an EC50 in data set [2] of 637 nM.
The corresponding values for `CC1(C)CCn2nc(COc3ccccc3)cc2C1NCc1ccccc1` (stereo not drawn) are 65% and 3620 nM.
On to `CC1CCn2nc(COc3ccccc3)cc2C1=O` (stereo not drawn), for which, in [1], the Activity worked out at 76%. In [2], this molecule showed a concentration giving a half-maximal response (EC50) of 285 nM.
In turn, `CC1(c2ccc(F)cc2)CCn2nc(COc3ccccc3)cc2C1=O` (stereo not drawn) returned an Activity in data set [1] of 58%. The EC50 in data set [2] was 228 nM.
In the same order, the values of `c1ccc(OCc2cc3n(n2)CCCC3OCC2CC2)cc1` (stereo not drawn) are 43% and 2520 nM.
In the same order, the values of `O=C1CCCc2nc(COc3ccccc3)sc21` are 65% and 441 nM.
Regarding `c1ccc(COC2CCCn3nc(COc4ccccc4)cc32)cc1` (stereo not drawn), the Activity in [1] turned out to be 70%. The molecule also gave a concentration for a half-maximal effect (EC50) in data set [2] of 989 nM.
On to `O=C1CCCn2nc(OCc3ccccc3)cc21`, for which the result in data set [19] was inactive.
In data set [1], `COC1c2cc(COc3ccccc3)nn2CCC1(C)C` (stereo not drawn) came in with an Activity of 75%. In addition, a half-maximal effect in [2] (EC50) was put at 796 nM.
In the same order, the values of `c1ccc(OCc2cc3n(n2)CCCC3NCc2ccncc2)cc1` (stereo not drawn) are 68% and 2570 nM.
The corresponding values for `COc1ccccc1C1CCn2nc(COc3ccccc3)cc2C1=O` (stereo not drawn) are 68% and 43 nM.
The molecule `CCCCC1(O)CCCn2nc(COc3ccccc3)cc21` (stereo not drawn) had an Activity in data set [1] of 44%. Further, the EC50 in [2] came out at 1820 nM.
For the molecule `O=C1c2cc(COc3ccccc3)nn2CCC1Cc1ccccc1` (stereo not drawn), the Activity in [1] was determined as 73%. This molecule also gave an EC50 in [2] of 124 nM.
In the same order, the values of `OC1CCCn2nc(COc3ccccc3)cc21` (stereo not drawn) are 47% and 2010 nM.
The corresponding values for `OC1(c2ccccc2)CCCn2nc(COc3ccccc3)cc21` (stereo not drawn) are 49% and 1200 nM.
In the case of `c1ccc(CNC2CCCn3nc(COc4ccccc4)cc32)cc1` (stereo not drawn), the Fu in the data set on Plasma [20] came to 0.03%; with Plasma [21] it was 0.02%. The molecule also showed an Activity in data set [1] of 74%. Further, the concentration giving a half-maximal response (EC50) in data set [2] is 632 nM.
With `O=C1c2cc(COc3ccccc3)nn2CCC1c1ccc(F)cc1` (stereo not drawn), the free fraction (fraction unbound) in [3] was 0.032; in data set [4], 0.008. This molecule had an Activity in data set [1] of 66%. This molecule also came in with an EC50 in data set [2] of 35 nM.

The values above are taken from ChEMBL document CHEMBL3351812, “Discovery and SAR of a novel series of metabotropic glutamate receptor 5 positive allosteric modulators with high ligand efficiency” (Bioorg Med Chem Lett, 2014).
